The results in this text go back to patent EP0326331B1, “Substituted quinolines and cinnolines” (Dow AgroSciences LLC, priority 1988, dated 1989).

Molecules are shown by their SMILES.

What all share (format): in vivo
Data set [1] deals with Pyricularia oryzae (rice blast). The experiment in a line: whole plant or invertebrate. The settings on record: disease control rating at 400 ppm / 100 ppm; for pest or weed control at 400 ppm: Pyricularia oryzae, foliar, read-out: RICE BLAST, Test 1, foliar spray on rice.
For data set [2], the system named is Puccinia recondita tritici (leaf rust). Description: Test 1 greenhouse foliar spray screen, leaf rust on wheat. The settings on record: Test 1, foliar spray on wheat, disease control rating at 400 ppm / 100 ppm; for pest or weed control at 400 ppm: Puccinia recondita, foliar.
Data set [3] concerns Pseudoperonospora cubensis (downy mildew). Description: Test 1 greenhouse foliar spray screen, downy mildew on squash. The settings on record: Test 1, foliar spray on squash, disease control rating at 400 ppm / 100 ppm; for pest or weed control at 400 ppm: Pseudoperonospora cubensis, foliar, read-out: DOWN MDEW.
Data set [4] relates to Twospotted spider mites (Tetranychus urticae Koch). Description: Mite/insect screen, SM. The settings on record: percent mortality, foliar spray on squash; for mortality at 400 ppm / mortality at 200 ppm: Tetranychus urticae, foliar, read-out: SM RESULTS %. The gist of the method:
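Compounds dissolved in 50:50 acetone/alcohol containing sulfonate/nonionic emulsifier blends, then diluted with water to the indicated concentrations. Leaves sprayed on both surfaces to runoff at 10 psi and dried one hour. Percent mortality scored after standard exposure periods.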

The subject of data set [5] is melon aphids (Aphis gossypii Glover). Description: Mite/insect screen, MA. Particulars: percent mortality, foliar spray on squash; for mortality at 400 ppm / mortality at 200 ppm: Aphis gossypii, foliar, read-out: MA RESULTS %. The gist of the method: (§1)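 Compounds dissolved in acetone/alcohol (50:50) with TOXIMUL R and S emulsifiers, diluted in water to test concentrations, and sprayed to runoff on both leaf surfaces at 10 psi, then dried 1 h. For armyworm, excised treated leaves were offered to larvae; percent mortality scored after standard exposure periods.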

The test system of a further data set is corn rootworm. Description: Mite/insect screen, CRW. The settings on record: percent mortality; for mortality at 24 ppm / mortality at 12 ppm: read-out: CRW RESULTS %. The gist of the method:
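Compounds dissolved in 50:50 acetone/alcohol with TOXIMUL R and S emulsifiers (23 and 13 g/L), then diluted in water to the stated test concentrations. Percent mortality of corn rootworm scored after standard exposure periods.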

Data set [6] has as its system southern armyworm (Spodopetra eridania Cramer). The experiment in a line: Mite/insect screen, SAW. Particulars: percent mortality, foliar spray on squash; for mortality at 400 ppm / mortality at 200 ppm: Spodoptera eridania, foliar, read-out: SAW RESULTS %. In outline:
as §1

Data set [7] concerns Erysiphe graminis tritici (powdery mildew). Description: Test 1 greenhouse foliar spray screen, powdery mildew on wheat. Particulars: Test 1, foliar spray on wheat, disease control rating at 400 ppm / 100 ppm; for pest or weed control at 400 ppm: Blumeria graminis, foliar, read-out: POWD MDEW.
Data set [8] relates to Botrytis cinerea (gray mold). Description: Test 1 greenhouse foliar spray screen, gray mold on grape berries. The settings on record: Test 1, spray on grape berries, disease control rating at 400 ppm / 100 ppm; for pest or weed control at 400 ppm: Botrytis cinerea, foliar.

As for `FC(F)(F)c1ccc2c(CCCc3ccccc3)ccnc2c1` [Example 254, 4-(3-phenylpropyl)-7-(trifluoromethyl)quinoline], the pest or weed control at 400 ppm lay in the range of 90 to 100% in data set [1]; 0 to 19% in data set [2]; 0 to 19% in data set [3]; 90 to 100% in data set [7]; 0 to 19% in [8]. The mortality at 400 ppm in data set [4] (rate 400 ppm), in data set [5] (rate 400 ppm) and in data set [6] (rate 400 ppm) was 0% each time. For the same compound, the mortality at 24 ppm with corn rootworm (CRW rate 24.00 ppm) is 0%.

Regarding `Clc1cccc2c(CCCc3ccccc3)ccnc12` [Example 255, 8-chloro-4-(3-phenylpropyl)quinoline], the pest or weed control at 400 ppm in [1] lay within 90 to 100%; in [2], 90 to 100%; in data set [3], 20 to 89%; in data set [7], 20 to 89%; in data set [8], 0 to 19%. The mortality at 400 ppm in data set [4] (rate 400 ppm), in data set [5] (rate 400 ppm) and in [6] (rate 400 ppm) was 0% each time. Also, the mortality at 24 ppm in the data set on corn rootworm (CRW rate 24.00 ppm) is 0%.

`Fc1cccc2c(CCCc3ccc(-c4ccccc4)cc3)ccnc12` [Example 257, 4-[3-(1,1'-biphenyl)-4-ylpropyl]-8-fluoroquinoline]: the pest or weed control at 400 ppm in data set [1] was in the range of 20 to 89%; in data set [2] it was 90 to 100%; in [3], 90 to 100%; in data set [7], 90 to 100%; in [8] it was 0 to 19%. Moreover, the mortality at 400 ppm in data set [4] (rate 400 ppm), in data set [5] (rate 400 ppm) and in data set [6] (rate 400 ppm) was 0% in each case. In addition, the mortality at 24 ppm with corn rootworm (CRW rate 24.00 ppm) came out at 0%.

For the compound `CC(C)(C)c1ccc(CCOc2ccnc3ccccc23)cc1` [Example 262, 4-[2-[4-(t-butyl)phenyl]ethoxy]quinoline], the pest or weed control at 400 ppm is 90 to 100% in [1]; 90 to 100% in data set [2]; 90 to 100% in data set [3]; 0 to 19% in [7]; 0 to 19% in data set [8]. Also, the mortality at 200 ppm was 100% in data set [4] (rate 200 ppm), 100% in data set [5] (rate 200 ppm) and 0% in data set [6] (rate 200 ppm). Moreover, the values for the mortality at 400 ppm in data set [4] (rate 400 ppm), in data set [5] (rate 400 ppm) and in [6] (rate 400 ppm) were 100%, 100% and 0%, respectively. In the data set on corn rootworm (CRW rate 12.00 ppm), the mortality at 12 ppm is 0%. The mortality at 24 ppm in the data set with corn rootworm (CRW rate 24.00 ppm) worked out at 0%.

As to `Fc1cccc2c(OCCc3ccc(-c4ccccc4)cc3)ccnc12` [Example 263, 8-fluoro-4-[2-(1,1'-biphenyl)-4-yl-ethoxy]quinoline], the “RICE BLAST” value in data set [1] (Test 1, foliar spray on rice) is given as “+ (20-89% control at 400 ppm)”. In addition, in data set [2], the “LEAF RUST” value is reported as “+ (20-89% control at 400 ppm)”. For the same compound, in data set [3], the “DOWN MDEW” value is reported as “- (0-19% control at 400 ppm)”. Moreover, the “SM RESULTS %” value in data set [4] (rate 200 ppm) and in [4] (rate 400 ppm) was 0% throughout. Further, the “MA RESULTS %” value in data set [5] (rate 200 ppm) and in data set [5] (rate 400 ppm) was 0% in each case. Besides, the “CRW RESULTS %” value in the data set on corn rootworm (CRW rate 12.00 ppm) and with corn rootworm (CRW rate 24.00 ppm) was 0% in each case. The “SAW RESULTS %” value in data set [6] (rate 200 ppm) and in [6] (rate 400 ppm) was 0% each time. Besides, the “POWD MDEW” value in data set [7] is recorded as “+ (20-89% control at 400 ppm)”. In data set [8], the “GRAY MOLD” value is on record as “- (0-19% control at 400 ppm)”.

`OCCc1ccc(CCOc2ccnc3c(F)cccc23)cc1` [Example 265, 8-fluoro-4-[2-[4-(2-hydroxyethyl)phenyl]ethoxy]quinoline]: the pest or weed control at 400 ppm in data set [1] was 90 to 100%; in [2], 90 to 100%; in data set [3], 0 to 19%; in data set [7], 0 to 19%; in data set [8], 0 to 19%. Further, the mortality at 200 ppm in data set [4] (rate 200 ppm), in [5] (rate 200 ppm) and in data set [6] (rate 200 ppm) was 0% each time. Besides, the mortality at 400 ppm in [4] (rate 400 ppm), in [5] (rate 400 ppm) and in data set [6] (rate 400 ppm) was 0% throughout. In the data set on corn rootworm (CRW rate 12.00 ppm), the mortality at 12 ppm came to 0%. Moreover, in the data set on corn rootworm (CRW rate 24.00 ppm), the mortality at 24 ppm turned out to be 0%.

In the case of `COC(C)CCOc1ccnc2c(F)cccc12` (stereo not shown) [Example 266, 8-fluoro-4-[3-methoxybutoxy]quinoline], the pest or weed control at 400 ppm in data set [1], in [2], in [3], in data set [7] and in [8] was 0 to 19% each time. Further, the mortality at 200 ppm in [4] (rate 200 ppm), in data set [5] (rate 200 ppm) and in [6] (rate 200 ppm) was 0% in each case. Moreover, the mortality at 400 ppm in data set [4] (rate 400 ppm), in data set [5] (rate 400 ppm) and in [6] (rate 400 ppm) was 0% in each case. In addition, in the data set on corn rootworm (CRW rate 12.00 ppm), the mortality at 12 ppm worked out at 0%. Also, in the data set with corn rootworm (CRW rate 24.00 ppm), the mortality at 24 ppm is 0%.

Take `C=CCCCOc1ccnc2c(F)cccc12` [Example 267, 8-fluoro-4-(4-pentenoxy)quinoline]: the pest or weed control at 400 ppm in data set [1] was in the range of 90 to 100%; in [2] it was 90 to 100%; in data set [3], 20 to 89%; in data set [7] it was 90 to 100%; in data set [8], 0 to 19%. The mortality at 200 ppm in [4] (rate 200 ppm) is 40%; in data set [5] (rate 200 ppm) it was 20%; in data set [6] (rate 200 ppm), 0%. Besides, the mortality at 400 ppm in data set [4] (rate 400 ppm) amounted to 100%; in data set [5] (rate 400 ppm) it was 100%; in data set [6] (rate 400 ppm), 0%. In the data set on corn rootworm (CRW rate 12.00 ppm), the mortality at 12 ppm is 0%. Besides, in the data set on corn rootworm (CRW rate 24.00 ppm), the mortality at 24 ppm was 0%.

For `Fc1cccc2c(NCCCCc3ccccc3)ccnc12` [Example 268, 8-fluoro-N-(4-phenylbutyl)-4-quinolinamine], the pest or weed control at 400 ppm lay within 90 to 100% in [1]; 90 to 100% in data set [2]; 90 to 100% in [3]; 20 to 89% in data set [7]; 0 to 19% in data set [8]. Further, the mortality at 200 ppm in data set [4] (rate 200 ppm), in data set [5] (rate 200 ppm) and in data set [6] (rate 200 ppm) was 0% in each case. Further, the results for the mortality at 400 ppm in data set [4] (rate 400 ppm), in [5] (rate 400 ppm) and in data set [6] (rate 400 ppm) were 80%, 0% and 0%, respectively. Besides, the mortality at 12 ppm in the data set on corn rootworm (CRW rate 12.00 ppm) is 0%. In the data set on corn rootworm (CRW rate 24.00 ppm), the mortality at 24 ppm amounted to 0%.

Consider `Fc1cccc2c(OCCc3ccccc3Cl)ccnc12` [Example 269, 4-[2-(2-chlorophenyl)ethoxy]-8-fluoroquinoline], for which the pest or weed control at 400 ppm lay within 90 to 100% in data set [1]; 90 to 100% in data set [2]; 90 to 100% in [3]; 90 to 100% in data set [7]; 0 to 19% in [8]. Moreover, the mortality at 400 ppm in data set [4] (rate 400 ppm), in data set [5] (rate 400 ppm) and in data set [6] (rate 400 ppm) was 0% in each case. Moreover, the mortality at 200 ppm in data set [5] (rate 200 ppm) is 30%; in data set [6] (rate 200 ppm) it was 0%. The mortality at 12 ppm in the data set with corn rootworm (CRW rate 12.00 ppm) came out at 0%. Moreover, the mortality at 24 ppm in the data set with corn rootworm (CRW rate 24.00 ppm) was found to be 40%.

As for `CCC(COc1ccnc2c(F)cccc12)c1ccc(-c2ccccc2)cc1` (stereo not shown) [Example 270, 4-[2-[1,1'-biphenyl]-4-ylbutoxy]-8-fluoroquinoline], the pest or weed control at 400 ppm is 20 to 89% in data set [1]; 0 to 19% in data set [2]; 0 to 19% in [3]; 0 to 19% in data set [7]; 0 to 19% in data set [8]. The mortality at 200 ppm was found to be 0% in [4] (rate 200 ppm), 0% in data set [5] (rate 200 ppm) and 20% in data set [6] (rate 200 ppm). Also, the mortality at 400 ppm in data set [4] (rate 400 ppm) was 80%; in data set [5] (rate 400 ppm) it was 0%; in data set [6] (rate 400 ppm) it was 0%. Besides, the mortality at 12 ppm in the data set on corn rootworm (CRW rate 12.00 ppm) came to 0%. The mortality at 24 ppm with corn rootworm (CRW rate 24.00 ppm) amounted to 0%.
